Counter-ions that a name gives are not always drawn. Like-named read-outs stand apart in the source and are kept apart here.
Target: T1, human cannabinoid CB2 receptor (Homo sapiens, UniProt P34972)
T1 construct: expressed in transfected cells; host or cells: Saccharomyces cerevisiae strain MMY23 (expresses a chimeric Gpa1/human Galpha-i3 G-protein alpha subunit)
Test: Cannabinoid CB2 receptor agonist activity, yeast reporter assay
Assay type: cell-based
Conditions: for activity in the CB2 assay (in words): CB2 assay described herein; for Emax: read-out: efficacy (Emax) at the cloned human cannabinoid CB2 receptor
From the text: Yeast (Saccharomyces cerevisiae) cells expressing the human cannabinoid CB2 receptor were generated by integration of an expression cassette into the ura3 chromosomal locus of yeast strain MMY23. This cassette consisted of DNA sequence encoding the human CB2 receptor flanked by the yeast GPD promoter to the 5′ end of CB2 and a yeast transcriptional terminator sequence to the 3′ end of CB2. MMY23 expresses a yeast/mammalian chimeric G-protein alpha subunit in which the C-terminal 5 amino acids of Gpa1 are replaced with the C-terminal 5 amino acids of human Gαi3 (as described in Brown et al. (2000), Yeast 16:11-22).
Agonists were prepared as 10 mM stocks in DMSO. […] Agonist solutions in DMSO (1% final assay volume) were transferred into black, clear bottom, microtitre plates from NUNC (96- or 384-well). […] Fluorescence was plotted against compound concentration and iteratively curve fitted using a four parameter fit to generate a concentration effect value.

[1] = yeast (Saccharomyces cerevisiae) cells expressing human CB2, read-out: EC50 at the cloned human cannabinoid CB2 receptor

T1 sequence (P34972 whole entry): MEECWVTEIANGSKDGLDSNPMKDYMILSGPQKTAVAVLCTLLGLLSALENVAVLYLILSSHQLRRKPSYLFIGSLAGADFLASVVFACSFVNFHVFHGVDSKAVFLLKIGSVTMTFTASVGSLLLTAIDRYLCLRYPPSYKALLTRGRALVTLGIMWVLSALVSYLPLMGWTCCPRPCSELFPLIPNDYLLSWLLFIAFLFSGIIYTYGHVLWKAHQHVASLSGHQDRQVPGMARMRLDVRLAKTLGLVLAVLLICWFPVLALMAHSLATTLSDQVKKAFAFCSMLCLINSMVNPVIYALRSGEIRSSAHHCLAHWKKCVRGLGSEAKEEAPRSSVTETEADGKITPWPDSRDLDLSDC

Row | activity in the CB2 assay (in words) | EC50 [1] | SMILES | EC50 | Emax
1 | inactive | – | O=C(NCc1ccccc1Br)c1cnc(Nc2cccc(Cl)c2)nc1C(F)(F)F [2-(3-Chloro-phenylamino)-4-trifluoromethyl-pyrimidine-5-carboxylic acid 2-bromo-benzylamide] | – | –
2 | inactive | – | COc1ccccc1CNC(=O)c1cnc(Nc2cccc(Cl)c2)nc1C(F)(F)F [2-(3-Chloro-phenylamino)-4-trifluoromethyl-pyrimidine-5-carboxylic acid 2-methoxy-benzylamide] | – | –
3 | inactive | – | CN(Cc1ccccc1)C(=O)c1cnc(Nc2ccc(C(C)(C)C)cc2)nc1C(F)(F)F [2-(4-tert-butyl-phenylamino)-4-trifluoromethyl-pyrimidine-5-carboxylic acid benzyl-methyl-amide] | – | –
4 | inactive | – | CC(C)(C)c1ccc(Nc2ncc(C(=O)NCc3ccccc3)c(C(F)(F)F)n2)cc1 [2-(4-tert-butyl-phenylamino)-4-trifluoromethyl-pyrimidine-5-carboxylic acid benzylamide] | – | –
5 | – | – | O=C(NCc1ccccc1)c1cnc(Nc2cccc(Cl)c2)nc1C(F)(F)F [Example 1, 2-(3-Chlorophenylamino)-4-trifluoromethylpyrimidine-5-carboxylic acid benzyl-amide] | 20 to 1000 nM | > 50%
6 | – | – | O=C(NCc1ccncc1)c1cnc(Nc2cccc(Cl)c2)nc1C(F)(F)F [Example 2, 2-(3-Chlorophenylamino)-4-trifluoromethylpyrimidine-5-carboxylic acid (pyrdin-4-ylmethyl)amide] | 20 to 1000 nM | > 50%
7 | – | – | CN(Cc1ccccc1)C(=O)c1cnc(Nc2cccc(Cl)c2)nc1C(F)(F)F [Example 3, 2-(3-Chlorophenylamino)-4-trifluoromethylpyrimidine-5-carboxylic acid N-benzyl-N-methylamide] | 20 to 1000 nM | > 50%
8 | – | – | COc1ccc(CNC(=O)c2cnc(Nc3cccc(Cl)c3)nc2C(F)(F)F)cc1 [Example 4, 2-(3-Chlorophenylamino)-4-trifluoromethylpyrimidine-5-carboxylic acid 4-methoxybenzyl-amide] | 20 to 1000 nM | > 50%
9 | – | 20 to 1000 nM | O=C(NCc1ccc(F)cc1)c1cnc(Nc2cccc(Cl)c2)nc1C(F)(F)F [Example 5, 2-(3-Chlorophenylamino)-4-trifluoromethylpyrimidine-5-carboxylic acid 4 fluorobenzyl-amide] | – | –
10 | – | – | N#Cc1ccc(CNC(=O)c2cnc(Nc3cccc(Cl)c3)nc2C(F)(F)F)cc1 [Example 6, 2-(3-Chlorophenylamino)-4-trifluoromethylpyrimidine-5-carboxylic acid 4 cyanobenzyl-amide] | 20 to 1000 nM | > 50%
11 | – | – | CN(Cc1ccccc1)C(=O)c1cnc(Nc2cccc(Cl)c2Cl)nc1C(F)(F)F [Example 7, 2-(2,3-Dichlorophenylamino)-4-trifluoromethylpyrimidine-5-carboxylic acid N-benzyl-N-methylamide] | 20 to 1000 nM | > 50%
12 | – | – | O=C(NCc1ccccc1)c1cnc(Nc2ccc(Cl)cc2Cl)nc1C(F)(F)F [Example 8, 2-(2,4-Dichlorophenylamino)-4-trifluoromethyloyrimidine-5-carboxyllc acid benzyl-amide] | 20 to 1000 nM | > 50%
13 | – | – | O=C(NCc1ccccc1)c1cnc(Nc2ccc(Cl)c(Cl)c2)nc1C(F)(F)F [Example 9, 2-(3,4-Dichlorophenylamino)-4-trifluoromethylpyrimidine-5-carboxylic acid benzyl-amide] | 20 to 1000 nM | > 50%
14 | – | – | CN(Cc1ccccc1)C(=O)c1cnc(Nc2c(Cl)cccc2Cl)nc1C(F)(F)F [Example 10, 2-(2,6-Dichlorophenylamino)-4-trifluoromethylpyrimidine-5-carboxylic acid N-benzyl-N-methylamide] | 20 to 1000 nM | > 50%
15 | – | – | O=C(NCc1ccccc1)c1cnc(Nc2cc(Cl)cc(Cl)c2)nc1C(F)(F)F [Example 11, 2-(3,5-Dichlorophenylamino)trifluoromethylpyrimidine-5-carboxylic acid benzyl-amide] | 20 to 1000 nM | > 50%
16 | – | – | O=C(NCc1ccccc1)c1cnc(Nc2cccc(F)c2)nc1C(F)(F)F [Example 12, 2-(3-Fluorophenylamino)-4-trifluoromethylpyrimidine-5-carboxylic acid benzyl-amide] | 20 to 1000 nM | > 50%
17 | – | – | O=C(NCc1ccccc1)c1cnc(Nc2cccc(Br)c2)nc1C(F)(F)F [Example 13, 2-(3-Bromophenylamino)-4-trifluoromethylpyrimidine-5-carboxylic acid benzyl-amide] | 20 to 1000 nM | > 50%
18 | – | – | CN(Cc1ccccc1)C(=O)c1cnc(Nc2cccc(Br)c2)nc1C(F)(F)F [Example 14, 2-(3-Bromophenylamino)-4-trifluoromethylpyrimidine-5-carboxylic acid N-benzyl-N-methylamide] | 20 to 1000 nM | > 50%

Row | activity in the CB2 assay (in words) | EC50 [1] | SMILES | EC50 | Emax
19 | – | – | COc1ccccc1Nc1ncc(C(=O)NCc2ccccc2)c(C(F)(F)F)n1 [Example 15, 2-(2-Methoxyphenylamino)-4-trifluoromethylpyrimidine-5-carboxylic acid benzyl-amide] | 20 to 1000 nM | > 50%
20 | – | – | O=C(NCc1ccncc1)c1cnc(Nc2cccc(Cl)c2Cl)nc1C(F)(F)F [Example 16] | 20 to 1000 nM | > 50%
21 | – | – | O=C(NCc1ccncc1)c1cnc(Nc2ccc(Cl)cc2Cl)nc1C(F)(F)F [Example 17, 2-(2,4-Dichlorophenylamino)-4-trifluoromethylpyrimidine-5-carboxylic acid (pyridin-4-ylmethyl)amide] | 20 to 1000 nM | > 50%
22 | – | – | O=C(NCc1ccncc1)c1cnc(Nc2ccc(Cl)c(Cl)c2)nc1C(F)(F)F [Example 18] | 20 to 1000 nM | > 50%
23 | – | – | O=C(NCc1ccncc1)c1cnc(Nc2cc(Cl)ccc2Cl)nc1C(F)(F)F [Example 19, 2-(2,5-Dichlorophenylamino)trifluoromethylpyrimidine-5-carboxylic acid (pyridin-4-ylmethyl)amide] | 20 to 1000 nM | > 50%
24 | – | – | O=C(NCc1ccncc1)c1cnc(Nc2cccc(F)c2)nc1C(F)(F)F [Example 20, 2-(3-Fluorophenylamino)-4-trifluoromethylpyrimidine-5-carboxylic acid (pyridin-4-ylmethyl)amide] | 20 to 1000 nM | > 50%
25 | – | – | O=C(NCc1ccncc1)c1cnc(Nc2cccc(Br)c2)nc1C(F)(F)F [Example 21, 2-(3-Bromophenylamino)-4-trifluoromethylpyrimidine-5-carboxylic acid (pyridin-4-ylmethyl)amide] | 20 to 1000 nM | > 50%
26 | – | – | O=C(NCc1ccncc1)c1cnc(Nc2cc(Cl)cc(Cl)c2)nc1C(F)(F)F [Example 22, 2-(3,5-Dichlorophenylamino)-4-trifluoromethylpyrimidine-5-carboxylic acid (pyridin-4-ylmethyl)amide] | 20 to 1000 nM | > 50%
27 | – | – | O=C(NCc1ccc(F)cc1)c1cnc(Nc2cccc(F)c2)nc1C(F)(F)F [Example 23, 2-(3-Fluorophenylamino)-4-trifluoromethylpyrimidine-5-carboxylic acid 4-fluorobenzyl-amide] | 20 to 1000 nM | > 50%
28 | – | 20 to 1000 nM | O=C(NCc1ccc(F)cc1)c1cnc(Nc2cccc(Br)c2)nc1C(F)(F)F [Example 24] | – | –
29 | – | – | O=C(NCc1ccc(F)cc1)c1cnc(Nc2cc(Cl)cc(Cl)c2)nc1C(F)(F)F [Example 25, 2-(3,5-Dichlorophenylamino)trifluoromethylpyrimidine-5-carboxylic acid 4-fluorobenzyl-amide] | 20 to 1000 nM | > 50%
30 | – | – | N#Cc1ccc(CNC(=O)c2cnc(Nc3cc(Cl)cc(Cl)c3)nc2C(F)(F)F)cc1 [Example 26, 2-(3,5-Dichlorophenylamino)-4-trifluoromethylpyrimidine-5-carboxylic acid 4-cyanobenzylamide] | 20 to 1000 nM | > 50%
31 | – | – | N#Cc1ccc(Nc2ncc(C(=O)NCc3ccccc3)c(C(F)(F)F)n2)cc1 [Example 27, 2-(4-Cyano-phenylamino)-4-trifluoromethyl-pyrimidine-5-carboxylic acid benzylamide] | 20 to 1000 nM | > 50%
32 | – | – | Cc1cc(CNC(=O)c2cnc(Nc3cccc(Cl)c3)nc2C(F)(F)F)ccn1 [Example 28, 2-(3-Chloro-phenylamino)-4-trifluoromethyl-pyrimidine-5-carboxylic acid (2-methyl-pyridin-4-ylmethyl)-amide hydrochloride] | 20 to 1000 nM | > 50%
33 | – | – | O=C(NCc1ccnc(F)c1)c1cnc(Nc2cccc(Cl)c2)nc1C(F)(F)F [Example 29, 2-(3-Chloro-phenylamino)-4-trifluoromethyl-pyrimidine-5-carboxylic acid (2-fluoro-pyridin-4-ylmethyl)-amide] | 20 to 1000 nM | > 50%
34 | – | – | O=C(NCc1ccccc1)c1cnc(Nc2ccccc2Cl)nc1C(F)(F)F [Example 43, 2-(2-Chloro-phenylamino)-4-trifluoromethyl-pyrimidine-5-carboxylic acid N-benzylamide] | > 1000 nM | < 50%
35 | – | – | O=C(NCc1ccccc1)c1cnc(Nc2ccc(Cl)cc2)nc1C(F)(F)F [Example 44, 2-(4-Chloro-phenylamino)4-trifluoromethyl-pyrimidine-5-carboxylic acid N-benzylamide] | > 1000 nM | < 50%

From US20060247261A1 (priority 2002, published 2006)
